One series has as its target GLP-1R (Homo sapiens, UniProt P43220). The series is described as follows: GLP-1R activation: cAMP increase in CHO cells stably expressing GLP-1R. Format: cell-based. The conditions noted are these: cAMP increase, CHO cells stably expressing GLP-1R, 10 point dose response, 30 minutes incubation; read-out: EC50.
The nature of series [1]: Microsomal stability, human liver microsomes (predicted hepatic clearance). The conditions noted are these: predicted from in vitro microsomal stability data.

Bounds are passed on as bounds.

GLP-1R, sequence (P43220 24-463): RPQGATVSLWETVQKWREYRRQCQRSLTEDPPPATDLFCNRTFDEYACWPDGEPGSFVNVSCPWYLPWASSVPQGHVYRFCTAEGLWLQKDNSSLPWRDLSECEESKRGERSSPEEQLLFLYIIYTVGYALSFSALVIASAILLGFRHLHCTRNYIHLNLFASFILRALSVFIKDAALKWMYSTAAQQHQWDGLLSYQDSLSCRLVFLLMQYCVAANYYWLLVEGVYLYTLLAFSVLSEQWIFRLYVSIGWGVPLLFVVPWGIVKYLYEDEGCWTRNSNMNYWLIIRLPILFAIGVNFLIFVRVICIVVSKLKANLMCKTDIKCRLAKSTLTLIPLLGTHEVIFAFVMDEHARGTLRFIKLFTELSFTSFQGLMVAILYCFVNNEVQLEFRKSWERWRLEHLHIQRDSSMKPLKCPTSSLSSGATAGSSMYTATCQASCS

In general, EC50 refers to the concentration that produces a half-maximal response. Turning to `N#Cc1ccc(COc2cccc(-c3ccc(Cc4nc5ccc(C(=O)O)cc5n4CC4(O)COC4)c(F)c3)n2)c(F)c1` [Example 316, 2-(4-(6-((4-cyano-2-fluorobenzyl)oxy)pyridin-2-yl)-2-fluorobenzyl)-1-((3-hydroxyoxetan-3-yl)methyl)-1H-benzo[d]imidazole-6-carboxylic acid], the concentration giving a half-maximal response (EC50) on GLP-1R came out at 14 nM. Also, the “Predicted Hepatic Clearance (Pred. Cl.)” value in series [1] was 4.67 mL/min/kg.
For `N#Cc1ccc(COc2nccc(-c3cc(F)c(Cc4nc5ccc(C(=O)O)cc5n4CC4(CF)CC4)c(F)c3)n2)c(F)c1` [Example 317, 2-(4-(2-((4-cyano-2-fluorobenzyl)oxy)pyrimidin-4-yl)-2,6-difluorobenzyl)-1-((1-(fluoromethyl)cyclopropyl)methyl)-1H-benzo[d]imidazole-6-carboxylic acid], in that order: 1.05 nM and 2.67 mL/min/kg.
For the compound `O=C(O)c1ccc2nc(Cc3ccc(-c4ccnc(OCc5ccc(Cl)cc5F)n4)c(F)c3)n(CC3(CF)CC3)c2n1` [Example 318, 2-(4-(2-((4-chloro-2-fluorobenzyl)oxy)pyrimidin-4-yl)-3-fluorobenzyl)-3-((1-(fluoromethyl)cyclopropyl)methyl)-3H-imidazo[4,5-b]pyridine-5-carboxylic acid], the EC50 on GLP-1R came out at 1.07 nM. For the same compound, the “Predicted Hepatic Clearance (Pred. Cl.)” value in series [1] is less than 1.83 mL/min/kg.
For the compound `N#Cc1ccc(COc2cccc(-c3cc(F)c(Cc4nc5ccc(C(=O)O)nc5n4CC4(CF)CC4)c(F)c3)n2)c(F)c1` [Example 319, 2-(4-(6-((4-cyano-2-fluorobenzyl)oxy)pyridin-2-yl)-2,6-difluorobenzyl)-3-((1-(fluoromethyl)cyclopropyl)methyl)-3H-imidazo[4,5-b]pyridine-5-carboxylic acid], the concentration for a half-maximal effect (EC50) at GLP-1R stood at 2.43 nM. Also, the “Predicted Hepatic Clearance (Pred. Cl.)” value in series [1] was less than 1.83 mL/min/kg.
`COCCn1c(Cc2ccc(-c3ccc(F)c(OCc4ccc(C#N)cc4F)n3)c(F)c2)nc2ccc(C(=O)O)cc21` [Example 320, 2-(4-(6-((4-cyano-2-fluorobenzyl)oxy)-5-fluoropyridin-2-yl)-3-fluorobenzyl)-1-(2-methoxyethyl)-1H-benzo[d]imidazole-carboxylic acid]: at GLP-1R, the EC50 was 18 nM. The “Predicted Hepatic Clearance (Pred. Cl.)” value in series [1] is 4.17 mL/min/kg.
For `O=C(O)c1ccc2nc(Cc3ccc(-c4cccc(OCc5ccc(Cl)cc5F)n4)c(F)c3)n(CC3(CF)CC3)c2n1` [Example 321, 2-(4-(6-((4-chloro-2-fluorobenzyl)oxy)pyridin-2-yl)-3-fluorobenzyl)-3-((1-(fluoromethyl)cyclopropyl)methyl)-3H-imidazo[4,5-b]pyridine-5-carboxylic acid], in that order: 0.27 nM and 6.33 mL/min/kg.
In the same order, the values of `COc1cc(C#N)ccc1COc1nccc(-c2ccc(Cc3nc4ccc(C(=O)O)nc4n3CC3(CF)CC3)cc2F)n1` [Example 322, 2-(4-(2-((4-cyano-2-methoxybenzyl)oxy)pyrimidin-4-yl)-3-fluorobenzyl)-3-((1-(fluoromethyl)cyclopropyl)methyl)-3H-imidazo[4,5-b]pyridine-5-carboxylic acid] are 0.58 nM and 12.3 mL/min/kg.
Take `N#Cc1ccc(COc2cccc(-c3ccc(Cc4nc5ccc(C(=O)O)cc5n4CCOC(F)(F)F)c(F)c3)n2)c(F)c1` [Example 323, 2-(4-(6-((4-cyano-2-fluorobenzyl)oxy)pyridin-2-yl)-2-fluorobenzyl)-1-(2-(trifluoromethoxy)ethyl)-1H-benzo[d]imidazole-6-carboxylic acid]: the EC50 at GLP-1R came to 27.5 nM. In addition, in series [1], the “Predicted Hepatic Clearance (Pred. Cl.)” value is 4.33 mL/min/kg.
Turning to `N#Cc1ccc(COc2cccc(-c3ccc(Cc4nc5ccc(C(=O)O)cc5n4CCOC(F)F)c(F)c3)n2)c(F)c1` [Example 324, 2-(4-(6-((4-cyano-2-fluorobenzyl)oxy)pyridin-2-yl)-2-fluorobenzyl)-1-(2-(difluoromethoxy)ethyl)-1H-benzo[d]imidazole-6-carboxylic acid], the EC50 on GLP-1R turned out to be 5.22 nM. Besides, the “Predicted Hepatic Clearance (Pred. Cl.)” value in series [1] was 2.83 mL/min/kg.
As for `N#Cc1ccc(COc2cccc(-c3cc(F)c(Cc4nc5ccc(C(=O)O)cc5n4CCOC(F)F)cc3F)n2)c(F)c1` [Example 325, 2-(4-(6-((4-cyano-2-fluorobenzyl)oxy)pyridin-2-yl)-2,5-difluorobenzyl)-1-(2-(difluoromethoxy)ethyl)-1H-benzo[d]imidazole-6-carboxylic acid], the EC50 at GLP-1R turned out to be 1.61 nM. The “Predicted Hepatic Clearance (Pred. Cl.)” value in series [1] was 5.67 mL/min/kg.
For the compound `N#Cc1ccc(COc2cccc(-c3ccc(Cc4nc5ccc(C(=O)O)cc5n4CC4(CO)COC4)c(F)c3)n2)c(F)c1` [Example 326, 2-(4-(6-((4-cyano-2-fluorobenzyl)oxy)pyridin-2-yl)-2-fluorobenzyl)-1-((3-(hydroxymethyl)oxetan-3-yl)methyl)-1H-benzo[d]imidazole-6-carboxylic acid], the EC50 on GLP-1R is 6.81 nM. For the same compound, the “Predicted Hepatic Clearance (Pred. Cl.)” value in series [1] was 12.3 mL/min/kg.
Consider `CO[C@H](C)Cn1c(Cc2ccc(-c3cccc(OCc4ccc(C#N)cc4F)n3)cc2F)nc2ccc(C(=O)O)cc21` [Example 327, (R)-2-(4-(6-((4-cyano-2-fluorobenzyl)oxy)pyridin-2-yl)-2-fluorobenzyl)-1-(2-methoxypropyl)-1H-benzo[d]imidazole-6-carboxylic acid], for which the half-maximal effective concentration (EC50) on GLP-1R stood at 7.73 nM. In addition, the “Predicted Hepatic Clearance (Pred. Cl.)” value in series [1] was 3 mL/min/kg.
In the case of `CO[C@@H](C)Cn1c(Cc2ccc(-c3cccc(OCc4ccc(C#N)cc4F)n3)cc2F)nc2ccc(C(=O)O)cc21` [Example 331, (S)-2-(4-(6-((4-cyano-2-fluorobenzyl)oxy)pyridin-2-yl)-2-fluorobenzyl)-1-(2-methoxypropyl)-1H-benzo[d]imidazole-6-carboxylic acid], the concentration giving a half-maximal response (EC50) at GLP-1R was 12.3 nM. The “Predicted Hepatic Clearance (Pred. Cl.)” value in series [1] was 4 mL/min/kg.
For `N#Cc1ccc(COc2nccc(-c3ccc(Cc4nc5ccc(C(=O)O)cc5n4CC4(CF)CC4)c(F)c3)n2)c(F)c1` [Example 344, 2-(4-(2-((4-cyano-2-fluorobenzyl)oxy)pyrimidin-4-yl)-2-fluorobenzyl)-1-((1-(fluoromethyl)cyclopropyl)methyl)-1H-benzo[d]imidazole-6-carboxylic acid], in that order: 1.56 nM and less than 1.83 mL/min/kg.
Regarding `COCCn1c(Cc2ccc(-c3cccc(OCc4ccc(C#N)cc4F)n3)cc2F)nc2c(OC)cc(C(=O)O)cc21` [Example 345, 2-(4-(6-((4-cyano-2-fluorobenzyl)oxy)pyridin-2-yl)-2-fluorobenzyl)-4-methoxy-1-(2-methoxyethyl)-1H-benzo[d]imidazole-6-carboxylic], the EC50 at GLP-1R came to 175 nM. Moreover, the “Predicted Hepatic Clearance (Pred. Cl.)” value in series [1] is 3.83 mL/min/kg.
`COCCn1c(Cc2ccc(-c3cccc(OCc4ccc(C#N)cc4OC4CC4)n3)cc2F)nc2ccc(C(=O)O)cc21` [Example 346, 2-(4-(6-((4-cyano-2-cyclopropoxybenzyl)oxy)pyridin-2-yl)-2-fluorobenzyl)-1-(2-methoxyethyl)-1H-benzo[d]imidazole-6-carboxylic acid]: the 50% effective concentration (EC50) at GLP-1R came to 94.6 nM. For the same compound, the “Predicted Hepatic Clearance (Pred. Cl.)” value in series [1] was 7.83 mL/min/kg.

(Values after patent publication US11702404B2, “GLP-1R modulating compounds” (priority 2019, dated 2023).)
